What all share (format): binding
For assay [1], the target named is FGFR2K (FGFR2 kinase domain) (Homo sapiens, UniProt P21802, C491A). In words: NMR titration, 1H/[…] HMQC chemical shift perturbation.
Assay [2] addresses FGFR2K WT^0Y (FGFR2 kinase domain) (Homo sapiens, UniProt P21802, C491A/Y466F/Y586L/Y588P/Y656F/Y657F). Put plainly: NMR titration, 1H/[…] methyl HMQC chemical shift perturbation.
In assay [3] the target is FGFR2K V564I^0Y (FGFR2 kinase domain) (Homo sapiens, UniProt P21802, C491A/V564I/Y466F/Y586L/Y588P/Y656F/Y657F). Described as above.
Assay [4] addresses FGFR2K V564E^0Y (FGFR2 kinase domain) (Homo sapiens, UniProt P21802, C491A/V564E/Y466F/Y586L/Y588P/Y656F/Y657F). Described as above.

What is called Kd is a measure of binding affinity in units of concentration.

The structures appear in SMILES notation.

Sequence of FGFR2K (FGFR2 kinase domain) (P21802 458-768 C491A): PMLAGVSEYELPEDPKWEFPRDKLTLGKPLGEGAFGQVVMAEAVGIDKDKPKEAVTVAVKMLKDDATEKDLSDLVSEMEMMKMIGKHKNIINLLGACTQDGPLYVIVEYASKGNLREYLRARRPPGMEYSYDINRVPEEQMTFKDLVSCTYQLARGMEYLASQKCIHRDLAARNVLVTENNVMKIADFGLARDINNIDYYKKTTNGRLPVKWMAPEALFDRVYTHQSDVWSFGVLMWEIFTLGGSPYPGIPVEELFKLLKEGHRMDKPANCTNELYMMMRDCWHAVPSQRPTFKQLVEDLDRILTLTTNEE
Sequence of FGFR2K V564I^0Y (FGFR2 kinase domain) (P21802 458-768 Y466F/C491A/V564I/Y586L/Y588P/Y656F/Y657F): as the sequence (P21802 458-768 C491A) above, with Y9F, V107I, Y129L, Y131P, Y199F, Y200F counted along it
Sequence of FGFR2K V564E^0Y (FGFR2 kinase domain) (P21802 458-768 Y466F/C491A/V564E/Y586L/Y588P/Y656F/Y657F): as the sequence (P21802 458-768 C491A) above, with Y9F, V107E, Y129L, Y131P, Y199F, Y200F counted along it
Sequence of FGFR2K WT^0Y (FGFR2 kinase domain) (P21802 458-768 Y466F/C491A/Y586L/Y588P/Y656F/Y657F): as the sequence (P21802 458-768 C491A) above, with Y9F, Y129L, Y131P, Y199F, Y200F counted along it

For `Nc1ncnc2c1ncn2[C@@H]1O[C@H](COP(=O)(O)OP(=O)(O)CP(=O)(O)O)[C@@H](O)[C@H]1O` [AMP-PCP], the Kd in assay [1] is 2900 ± 100 µM.

As to `Nc1ncnc2c1ncn2[C@@H]1O[C@H](COP(=O)(O)OP(=O)(O)OP(=O)(O)O)[C@@H](O)[C@H]1O` [ATP], the dissociation constant (Kd) came out at 450 ± 70 µM in assay [2], 280 ± 30 µM in assay [3] and 140 ± 20 µM in assay [4].

(Values after publication PMC9974468 (Proceedings of the National Academy of Sciences of the …, 2023).)
